Test results: patent publication US10538554B2, “Peptides and uses therefor as antiviral agents” (priority 2015, dated 2020)
Bridge positions count the residues as written; N and C are the ends. Square brackets hold non-standard residues; d marks the D form. Peptide text beside a SMILES is read from it.

Tested on: H1N1 A/PR/8/1934
Conditions: A/PR/8/1934, 48 h; for % Inhibition: 1 μM

## CC[C@@H](C)[C@H]1NC(=O)[C@@H](Cc2ccccc2)NC(=O)[C@@H]([C@H](C)O)NC(=O)[C@@H](Cc2ccccc2)NC(=O)[C@@H](Cc2c[nH]c3ccccc23)NC(=O)[C@@H](CCSC)NC(=O)[C@H](NC(=O)[C@H](CCCCN)NC(=O)[C@H](CCCCN)NC(=O)[C@H](CCCNC(=N)N)NC(=O)[C@@H](N)CCCNC(=N)N)CSSC[C@H](C(=O)O)NC(=O)[C@@H](CC(N)=O)NC1=O [PSP V A11, M-RRKKcmwftfinc-OH] (H-RRKK[dC][dM][dW][dF][dT][dF][dI][dN][dC]-OH; disulfide 5-13; N-terminus assumed)
  % Inhibition: 92%

## CC[C@@H](C)[C@H]1NC(=O)[C@@H](Cc2ccccc2)NC(=O)[C@@H]([C@H](C)O)NC(=O)[C@@H](Cc2ccccc2)NC(=O)[C@@H](Cc2c[nH]c3ccccc23)NC(=O)[C@@H](CC(N)=O)NC(=O)[C@H](NC(=O)[C@H](CCCCN)NC(=O)[C@H](CCCCN)NC(=O)[C@H](CCCNC(=N)N)NC(=O)[C@@H](N)CCCNC(=N)N)CSSC[C@H](C(=O)O)NC(=O)[C@@H](CC(N)=O)NC1=O [PSP V A12, H-RRKKcnwftfinc-OH] (H-RRKK[dC][dN][dW][dF][dT][dF][dI][dN][dC]-OH; disulfide 5-13)
  % Inhibition: <20%

## CC[C@@H](C)[C@H]1NC(=O)[C@@H](Cc2ccccc2)NC(=O)[C@@H]([C@H](C)O)NC(=O)[C@@H](Cc2ccccc2)NC(=O)[C@@H](Cc2c[nH]c3ccccc23)NC(=O)[C@H]2CCCN2C(=O)[C@H](NC(=O)[C@H](CCCCN)NC(=O)[C@H](CCCCN)NC(=O)[C@H](CCCNC(=N)N)NC(=O)[C@@H](N)CCCNC(=N)N)CSSC[C@H](C(=O)O)NC(=O)[C@@H](CC(N)=O)NC1=O [PSP V A13, H-RRKKcpwftfinc-OH] (H-RRKK[dC][dP][dW][dF][dT][dF][dI][dN][dC]-OH; disulfide 5-13)
  % Inhibition: <20%

## CC[C@@H](C)[C@H]1NC(=O)[C@@H](Cc2ccccc2)NC(=O)[C@@H]([C@H](C)O)NC(=O)[C@@H](Cc2ccccc2)NC(=O)[C@@H](Cc2c[nH]c3ccccc23)NC(=O)[C@@H](CCC(N)=O)NC(=O)[C@H](NC(=O)[C@H](CCCCN)NC(=O)[C@H](CCCCN)NC(=O)[C@H](CCCNC(=N)N)NC(=O)[C@@H](N)CCCNC(=N)N)CSSC[C@H](C(=O)O)NC(=O)[C@@H](CC(N)=O)NC1=O [PSP V A14, H-RRKKcqwftfinc-OH] (H-RRKK[dC][dQ][dW][dF][dT][dF][dI][dN][dC]-OH; disulfide 5-13)
  % Inhibition: 44%

## CC[C@@H](C)[C@H]1NC(=O)[C@@H](Cc2ccccc2)NC(=O)[C@@H]([C@H](C)O)NC(=O)[C@@H](Cc2ccccc2)NC(=O)[C@@H](Cc2c[nH]c3ccccc23)NC(=O)[C@@H](CCCNC(=N)N)NC(=O)[C@H](NC(=O)[C@H](CCCCN)NC(=O)[C@H](CCCCN)NC(=O)[C@H](CCCNC(=N)N)NC(=O)[C@@H](N)CCCNC(=N)N)CSSC[C@H](C(=O)O)NC(=O)[C@@H](CC(N)=O)NC1=O [PSP V A15, H-RRKKcrwftfinc-OH] (H-RRKK[dC][dR][dW][dF][dT][dF][dI][dN][dC]-OH; disulfide 5-13)
  % Inhibition: 87%

## CC[C@@H](C)[C@H]1NC(=O)[C@@H](Cc2ccccc2)NC(=O)[C@@H]([C@H](C)O)NC(=O)[C@@H](Cc2ccccc2)NC(=O)[C@@H](Cc2c[nH]c3ccccc23)NC(=O)[C@@H](CO)NC(=O)[C@H](NC(=O)[C@H](CCCCN)NC(=O)[C@H](CCCCN)NC(=O)[C@H](CCCNC(=N)N)NC(=O)[C@@H](N)CCCNC(=N)N)CSSC[C@H](C(=O)O)NC(=O)[C@@H](CC(N)=O)NC1=O [PSP V A16, H-RRKKcswftfinc-OH] (H-RRKK[dC][dS][dW][dF][dT][dF][dI][dN][dC]-OH; disulfide 5-13)
  % Inhibition: 54%

## CC[C@@H](C)[C@H]1NC(=O)[C@@H](Cc2ccccc2)NC(=O)[C@@H]([C@H](C)O)NC(=O)[C@@H](Cc2ccccc2)NC(=O)[C@@H](Cc2c[nH]c3ccccc23)NC(=O)[C@@H](C(C)C)NC(=O)[C@H](NC(=O)[C@H](CCCCN)NC(=O)[C@H](CCCCN)NC(=O)[C@H](CCCNC(=N)N)NC(=O)[C@@H](N)CCCNC(=N)N)CSSC[C@H](C(=O)O)NC(=O)[C@@H](CC(N)=O)NC1=O [PSP V A18, H-RRKKcvwftfinc-OH] (H-RRKK[dC][dV][dW][dF][dT][dF][dI][dN][dC]-OH; disulfide 5-13)
  % Inhibition: 81%

## CC[C@@H](C)[C@H]1NC(=O)[C@@H](Cc2ccccc2)NC(=O)[C@@H]([C@H](C)O)NC(=O)[C@@H](Cc2ccccc2)NC(=O)[C@@H](Cc2c[nH]c3ccccc23)NC(=O)[C@@H](Cc2c[nH]c3ccccc23)NC(=O)[C@H](NC(=O)[C@H](CCCCN)NC(=O)[C@H](CCCCN)NC(=O)[C@H](CCCNC(=N)N)NC(=O)[C@@H](N)CCCNC(=N)N)CSSC[C@H](C(=O)O)NC(=O)[C@@H](CC(N)=O)NC1=O [PSP V A19, H-RRKKcwwftfinc-OH] (H-RRKK[dC][dW][dW][dF][dT][dF][dI][dN][dC]-OH; disulfide 5-13)
  IC50: 20 nM
  % Inhibition: 97%

## CC[C@@H](C)[C@H]1NC(=O)[C@@H](Cc2ccccc2)NC(=O)[C@@H]([C@H](C)O)NC(=O)[C@@H](Cc2ccccc2)NC(=O)[C@@H](Cc2c[nH]c3ccccc23)NC(=O)[C@@H](Cc2ccc(O)cc2)NC(=O)[C@H](NC(=O)[C@H](CCCCN)NC(=O)[C@H](CCCCN)NC(=O)[C@H](CCCNC(=N)N)NC(=O)[C@@H](N)CCCNC(=N)N)CSSC[C@H](C(=O)O)NC(=O)[C@@H](CC(N)=O)NC1=O [PSP V A20, H-RRKKcywftfinc-OH] (H-RRKK[dC][dY][dW][dF][dT][dF][dI][dN][dC]-OH; disulfide 5-13)
  % Inhibition: <20%

## CC[C@@H](C)[C@H]1NC(=O)[C@@H](Cc2ccccc2)NC(=O)[C@@H]([C@H](C)O)NC(=O)[C@@H](Cc2ccccc2)NC(=O)[C@@H](Cc2c[nH]c3ccccc23)NC(=O)[C@@H](Cc2c[nH]c3ccccc23)NC(=O)[C@H](NC(=O)[C@H](CCCCN)NC(=O)[C@H](CCCCN)NC(=O)[C@H](CCCNC(=N)N)NC(=O)[C@@H](N)CCCNC(=N)N)CSSC[C@H](C(=O)O)NC(=O)[C@@H](CS)NC1=O [PSP VI A2, H-RRKKcwwftficc-OH] (H-RRKK[dC][dW][dW][dF][dT][dF][dI][dC][dC]-OH; disulfide 5-13)
  % Inhibition: 95%

## CC[C@@H](C)[C@H]1NC(=O)[C@@H](Cc2ccccc2)NC(=O)[C@@H]([C@H](C)O)NC(=O)[C@@H](Cc2ccccc2)NC(=O)[C@@H](Cc2c[nH]c3ccccc23)NC(=O)[C@@H](Cc2c[nH]c3ccccc23)NC(=O)[C@H](NC(=O)[C@H](CCCCN)NC(=O)[C@H](CCCCN)NC(=O)[C@H](CCCNC(=N)N)NC(=O)[C@@H](N)CCCNC(=N)N)CSSC[C@H](C(=O)O)NC(=O)[C@@H](CC(=O)O)NC1=O [PSP VI A3, H-RRKKcwwftfidc-OH] (H-RRKK[dC][dW][dW][dF][dT][dF][dI][dD][dC]-OH; disulfide 5-13)
  % Inhibition: 66%

## CC[C@@H](C)[C@H]1NC(=O)[C@@H](Cc2ccccc2)NC(=O)[C@@H]([C@H](C)O)NC(=O)[C@@H](Cc2ccccc2)NC(=O)[C@@H](Cc2c[nH]c3ccccc23)NC(=O)[C@@H](Cc2c[nH]c3ccccc23)NC(=O)[C@H](NC(=O)[C@H](CCCCN)NC(=O)[C@H](CCCCN)NC(=O)[C@H](CCCNC(=N)N)NC(=O)[C@@H](N)CCCNC(=N)N)CSSC[C@H](C(=O)O)NC(=O)[C@@H](CCC(=O)O)NC1=O [PSP VI A4, H-RRKKcwwftfiec-OH] (H-RRKK[dC][dW][dW][dF][dT][dF][dI][dE][dC]-OH; disulfide 5-13)
  % Inhibition: 65%
